We go through three compounds from the NIST ThermoML archive (doi:10.1021/je200833s).

Numbers after ± are expanded uncertainties.

A short description of this data set: molar enthalpy of vaporization or sublimation. The conditions noted are these: 298.15 K; Crystal; Calvet.
With `Oc1ccc(I)cc1` [4-iodophenol], the molar enthalpy is 21.2 ± 0.717 kcal/mol.
Consider `Oc1cccc(I)c1` [m-iodophenol], for which the molar enthalpy was determined as 21.1 ± 0.765 kcal/mol.
In the case of `Oc1ccccc1I` [2-iodophenol], the molar enthalpy amounted to 18.2 ± 0.669 kcal/mol.
